Read-outs that look alike come from different tables or passages of the source.
Assays:
[1] = tested on: carrageenin-induced edema; assay: Carrageenin-induced edema suppression in rats (anti-inflammatory activity); type: in vivo, rat (male, Wistar strain); conditions: for ED50: read-out: Anti-inflammatory activity, ED50
Method: Anti-inflammatory activity was tested as follows: Male rats of the Wistar strain were used in groups of 7. A test compound was suspended in a 0.2% carboxymethyl cellulose solution and orally administered in a dose of 0.5 ml/100 g of body weight. […] Three hours after injection of carrageenin, each rat was sacrificed by ether. The feet of both hind legs were amputated at the ankle joint and weighed to detect the difference in weight between both feet. Then, the ability of the test compound to suppress the carrageenin-induced edema was evaluated by comparing the foot weight difference of the test group with that of a control group (consisting of rats to which the solvent alone was administered). Specifically, the rate of suppression of the edema was calculated according to the following equation: [formula]

[2] = in vivo; conditions: rat, in vivo, po
Method: (§1) The incidence of gastric disorders in rats was tested as follows: Eight-weeks-old male rats of the Wistar strain were used in groups of 5 to 7. After they were fasted for 18 hours or more, a test compound was administered orally. Six hours later, each rat was sacrificed by decapitation. The stomach was removed, filled with 10 ml of physiological saline, and then fixed in 5% formalin. After about 10 minutes, the stomach was incised through the greater curvature and the presence or absence of gastric disorders (in particular, erosion) was examined by visual observation. According to Litchfield-Wilcoxon's method, the dose causing erosion to occur in 50% of the test animals, UD50, was calculated on an all-or-none basis.

[3] = tested on: carrageenin-induced edema; assay: Duration of anti-inflammatory activity (carrageenin edema, varied premedication time); type: in vivo, rat (male, Wistar strain); conditions: for Rate of suppression of edema: dose = ED50
Text: The premedication time was defined as the time interval between the administration of a test compound and the injection of carrageenin.

[4] = in vivo; conditions: mouse, in vivo, po
Method: (§2) A test compound was suspended in a 0.2% carboxymethyl cellulose solution and orally administered in a dose of 0.1 ml/10 g of body weight. […] The LD50 value was calculated on the basis of the death rates on the final day.

[5] = tested on: mice; assay: in vivo; conditions: for Number of deaths/total number of test animals: p.o.
Method: as §2

[6] = tested on: stomach (gastric disorders, erosion); assay: Incidence of gastric disorders (erosion) in rats; conditions: Table 1; ratio of UD50 (gastric) to ED50 (edema)
Method: as §1

[7] = Table 1; literature value: Pharmacometrics, 6(6), 1285 (1972) for indomethacin; Folia Pharmacologica Japonica, 69, 319 (1973) for diclofenac; cited from earlier work
[8] = cited from earlier work
[9] = Rattus norvegicus, po, 3 h, p.o., read-out: Rate of suppression of edema
[10] = 3 h, Table 1, rat, oral, carrageenin edema
[11] = Rattus norvegicus, po, 3 h, read-out: Rate of suppression of edema
[12] = Rattus norvegicus, po, 3 h, 1.25 mg/kg, p.o., read-out: Rate of suppression of edema
[13] = Rattus norvegicus, po, 3 h, 2.5 mg/kg, p.o., read-out: Rate of suppression of edema
[14] = Rattus norvegicus, po, 3 h, 5.0 mg/kg, p.o., read-out: Rate of suppression of edema

Compound	ED50 [1, 10]	TD50 at 6 h [2]	Rate of suppression of edema ([3]; premedicated 1 hr.)	Rate of suppression of edema ([3]; premedicated 3 hr.)	Rate of suppression of edema ([3]; premedicated 6 hr.)	Rate of suppression of edema ([3]; premedicated 12 hr.)	Rate of suppression of edema ([3]; premedicated 24 hr.)	Rate of suppression of edema ([3]; premedicated 48 hr.)	LD50 at 168 h [4]	Anti-inflammatory activity (in words) ([8]; prior art)	also measured
CN1C(C(=O)Nc2ccc(Cl)cn2)C(=O)c2ccccc2S1(=O)=O (stereo not shown) [5-Chloro-2-pyridyl compound, N-(5-chloro-2-pyridyl)-3,4-dihydro-2-methyl-4-oxo-2H-1,2-benzothiazine-3-carboxamide 1,1-dioxide]											inhibition in vivo at 6.5 mg/kg [1, 9]: 18.9%
Cc1cccc(NC(=O)C2C(=O)c3ccccc3S(=O)(=O)N2C)n1 (stereo not shown) [6-Methyl-2-pyridyl compound, N-(6-methyl-2-pyridyl)-3,4-dihydro-2-methyl-4-oxo-2H-1,2-benzothiazine-3-carboxamide 1,1-dioxide]	4.5 mg/kg	5.1 mg/kg									inhibition in vivo at 1.75 mg/kg ([1]; Rattus norvegicus, po, 3 h, 1.75 mg/kg, p.o., read-out: Rate of suppression of edema): 27.4%; inhibition in vivo at 6.5 mg/kg [1, 9]: 58.9%
CN1C(C(=O)Nc2cccc(F)n2)C(=O)c2ccccc2S1(=O)=O (stereo not shown) [Compound of formula (1), N-(6-fluoro-2-pyridyl)-3,4-dihydro-2-methyl-4-oxo-2H-1,2-benzothiazine-3-carboxamide 1,1-dioxide]	7.5 mg/kg	297 mg/kg	56.6%	54.8%	43.2%	39.1%	20.7%	3.4%	> 5000 mg/kg		inhibition in vivo at 2 mg/kg ([1]; Rattus norvegicus, po, 3 h, 2.0 mg/kg, p.o., read-out: Rate of suppression of edema): 20%; inhibition in vivo at 4 mg/kg ([1]; Rattus norvegicus, po, 3 h, 4.0 mg/kg, p.o., read-out: Rate of suppression of edema): 32%; inhibition in vivo at 8 mg/kg ([1]; Rattus norvegicus, po, 3 h, 8.0 mg/kg, p.o., read-out: Rate of suppression of edema): 54.6%; inhibition in vivo at 16 mg/kg ([1]; Rattus norvegicus, po, 3 h, 16.0 mg/kg, p.o., read-out: Rate of suppression of edema): 66.6%; Anti-inflammatory activity (in words) ([1]; summary of results): potent and long-lasting anti-inflammatory activity; Duration of anti-inflammatory activity (in words) ([3]; from Table 3): excellent in the duration of anti-inflammatory activity; Number of deaths/total number of test animals ([5]; 3,000 mg/kg): 0/5; Number of deaths/total number of test animals ([5]; 4,000 mg/kg): 0/5; Number of deaths/total number of test animals ([5]; 5,000 mg/kg): 0/5; Acute toxicity, LD50 ([5]; Table 1, mouse, oral, 7 days): > 5,000 mg/kg; Degree of safety (in words) ([5]; mouse, in vivo): very high degree of safety
O=C(O)Cc1ccccc1Nc1c(Cl)cccc1Cl [Diclofenac, diclofenac]		9.2 mg/kg	45.9%	24.7%	17.6%		-1.2%				ED50 ([1]; Rattus norvegicus, po, 3 h): 5 mg/kg; inhibition in vivo at 2.5 mg/kg [1, 11]: 29.7%; inhibition in vivo at 5 mg/kg [1, 11]: 48.5%; inhibition in vivo at 10 mg/kg [1, 11]: 69.3%
COc1ccc2c(c1)c(CC(=O)O)c(C)n2C(=O)c1ccc(Cl)cc1 [Indomethacin, indomethacin]		5.4 mg/kg	49.4%	57.6%	29.4%	18.8%	-3.5%				ED50 ([1]; Rattus norvegicus, po, 3 h): 4.6 mg/kg; inhibition in vivo at 1.25 mg/kg [1, 11]: 19.3%; inhibition in vivo at 2.5 mg/kg [1, 11]: 22.8%; inhibition in vivo at 5 mg/kg [1, 11]: 57.4%; inhibition in vivo at 10 mg/kg [1, 11]: 73.3%; Therapeutic index, UD50/ED50 [6]: 1.2; selectivity ratio [4]: 3.7; Acute toxicity, LD50 [7]: 17 mg/kg
Cc1cc(NC(=O)C2C(=O)c3ccccc3S(=O)(=O)N2C)no1 (stereo not shown) [Isoxicam, 3,4-dihydro-2-methyl-N-(5-methyl-3-isoxazolyl)-4-oxo-2H-1,2-benzothiazine-3-carboxamide 1,1-dioxide]	15.5 mg/kg	250 mg/kg	54.2%	54.2%	45.8%	36.3%	19.5%	1.1%	5000 mg/kg	lower than that of Piroxicam and Sudoxicam	inhibition in vivo at 3.75 mg/kg ([1]; Rattus norvegicus, po, 3 h, 3.75 mg/kg, p.o., read-out: Rate of suppression of edema): 7.5%; inhibition in vivo at 7.5 mg/kg ([1]; Rattus norvegicus, po, 3 h, 7.5 mg/kg, p.o., read-out: Rate of suppression of edema): 32.3%; inhibition in vivo at 15 mg/kg ([1]; Rattus norvegicus, po, 3 h, 15.0 mg/kg, p.o., read-out: Rate of suppression of edema): 46.8%; inhibition in vivo at 30 mg/kg ([1]; Rattus norvegicus, po, 3 h, 30.0 mg/kg, p.o., read-out: Rate of suppression of edema): 69.4%; Degree of toxicity and incidence of gastric disorders (in words) ([8]; in vivo): relatively low
CN1C(C(=O)Nc2ccccn2)C(=O)c2ccccc2S1(=O)=O (stereo not shown) [Piroxicam, 3,4-dihydro-2-methyl-4-oxo-N-(2-pyridyl)-2H-1,2-benzothiazine-3-carboxamide 1,1-dioxide]	1.75 mg/kg	8.2 mg/kg	57.6%	55.3%	40.0%	38.8%	15.3%	1.7%	490 mg/kg	potent and long-lasting anti-inflammatory activity	inhibition in vivo at 0.625 mg/kg ([1]; Rattus norvegicus, po, 3 h, 0.625 mg/kg, p.o., read-out: Rate of suppression of edema): 26.9%; inhibition in vivo at 1.25 mg/kg [1, 12]: 42.5%; inhibition in vivo at 2.5 mg/kg [1, 13]: 57%; inhibition in vivo at 5 mg/kg [1, 14]: 76.4%; Degree of toxicity and incidence of gastric disorders (in words) ([8]; in vivo): not appreciably different from those of indomethacin and diclofenac
CN1C(C(=O)Nc2nccs2)C(=O)c2ccccc2S1(=O)=O (stereo not shown) [Sudoxicam, 3,4-dihydro-2-methyl-4-oxo-N-(2-thiazolyl)-2H-1,2-benzothiazine-3-carboxamide 1,1-dioxide]	5.1 mg/kg	11.8 mg/kg	49.8%	52.1%	39.5%	31.6%	10.4%	-2.4%	500 mg/kg	potent and long-lasting anti-inflammatory activity	inhibition in vivo at 1.25 mg/kg [1, 12]: 14.9%; inhibition in vivo at 2.5 mg/kg [1, 13]: 30.7%; inhibition in vivo at 5 mg/kg [1, 14]: 45.5%; inhibition in vivo at 10 mg/kg ([1]; Rattus norvegicus, po, 3 h, 10.0 mg/kg, p.o., read-out: Rate of suppression of edema): 69.3%; Therapeutic index, UD50/ED50 [6]: 2.3; selectivity ratio [4]: 98; Number of deaths/total number of test animals ([5]; 200 mg/kg): 0/5; Number of deaths/total number of test animals ([5]; 400 mg/kg): 2/5; Number of deaths/total number of test animals ([5]; 800 mg/kg): 4/5; Number of deaths/total number of test animals ([5]; 1,000 mg/kg): 5/5; Therapeutic index and safety margin (in words) ([5]; from Table 1): superior in therapeutic index and safety margin to indomethacin and diclofenac; Degree of toxicity and incidence of gastric disorders (in words) ([8]; prior art): not appreciably different from those of indomethacin and diclofenac

Source: US4376119A, “Benzothiazine derivative” (priority 1981, dated 1983)
